Here are results for 8 compounds from ChEMBL document CHEMBL1151522, “Syntheses of homoserine phosphate analogs as potential inhibitors of bacterial threonine synthase” (Bioorg Med Chem Lett, 1994).

SMILES strings stand for the structures.

The subject of test [1] is Escherichia coli. Briefly: Inhibition of Escherichia coli threonine synthase expressed as inactivation constant; d: indicates competitive inhibitor.
Test [2] can be described thus: Inhibition of threonine synthase in Escherichia coli.
The subject of test [3] is Escherichia coli. Briefly: Inhibition of Escherichia coli threonine synthase expressed as inactivation constant.
The nature of test [4]: Inhibition of threonine synthase in Escherichia coli; c: indicates No inhibition at 10 mM.

Regarding `NC(C/C=C/P(=O)(O)O)C(=O)O` (stereo not drawn), in test [1], the K inact result is listed as “Competitive inhibitor”. Besides, the inhibitory constant (Ki) – broadly, the dissociation constant of the complex between target and ligand, obtained from inhibition or displacement – in test [2] was determined as 540 µM.

For `NC(CNCP(=O)(O)O)C(=O)O` (stereo not drawn), the affinity in test [2], expressed as Ki, was 59 µM. Further, the K inact in test [3] stood at 1.44 min⁻¹.

`NC(COCP(=O)(O)O)C(=O)O` (stereo not drawn): the Ki result in test [4] was “No inhibition”.

For `NC(C/C=C\P(=O)(O)O)C(=O)O` (stereo not drawn), the Ki result in test [4] is reported as “No inhibition”.

`NC(/C=C\CP(=O)(O)O)C(=O)O` (stereo not drawn) returned a Ki in test [2] of 100000 µM. The compound further gave a K inact in test [3] of 1.5 min⁻¹.

Turning to `NC(CSCP(=O)(O)O)C(=O)O` (stereo not drawn), the K inact entry in test [1] is “d”. For the same compound, in test [2], the affinity corresponds to a Ki of 33 µM.

Compound `NC(/C=C/CP(=O)(O)O)C(=O)O` (stereo not drawn) yielded an inhibition constant Ki in test [2] of 400 µM. Also, the K inact in test [3] was found to be 0.25 min⁻¹.

With `NC(CC#CP(=O)(O)O)C(=O)O` (stereo not drawn), the Ki result in test [4] is reported as “No inhibition”.
